# Several values for one entry are separate records, joined by “and”; a condition that tells them apart may be missing. Equal values may be shown once.
row,melting point,Compound
1,62 °C,COC(=O)c1ccccc1S(=O)(=O)Cl [methyl 2-(chlorosulfonyl)benzoate]
2,130 °C,CCOC(=O)C(C#N)=NO [ethyl isonitrosocyanoacetate]
3,142 °C,CC(=O)Oc1ccccc1C(=O)O [acetylsalicylicacid]
4,206 °C,C#C[C@]1(O)CC[C@H]2[C@@H]3CCC4=CC(=O)CC[C@@H]4[C@H]3CC[C@@]21CC [Norgestrel]
5,97 °C,COC(=O)c1cncc(Br)c1 [methyl 5-bromonicotinate]
6,106 °C,"CCCNC(=O)C(C(F)(F)F)C(F)(F)F [propanamide, 3,3,3-trifluoro-N-propyl-2-(trifluoromethyl)-]"
7,37 °C,Ic1cccc(I)c1 [m-diiodobenzene]
8,101 °C,c1ccc2c(c1)ccc1ccccc12 [Phenanthrene]
9,172 °C,Oc1ccc(O)cc1 [hydroquinone]
10,133 °C,O=C(O)CCCCCCCCC(=O)O [sebacic_acid]
11,62 °C,CC(C)(C)OC(=O)N[C@H](COCc1ccccc1)C(=O)O [N-boc-o-benzyl-D-serine]
12,290 °C,C[C@@H]1CC=CC=CC=CC=C[C@H](OC2O[C@H](C)[C@@H](O)[C@H](N)[C@@H]2O)C[C@@H]2O[C@](O)(C[C@@H](O)C[C@H]3O[C@@H]3C=CC(=O)O1)C[C@H](O)[C@H]2C(=O)O (stereo not given in full) [Natamycin]
13,-34 °C,CCOC(=O)c1ccccc1 [ethyl benzoate]
14,163 °C,NC(=O)[C@H](Cc1ccccc1)NC(=O)OCc1ccccc1 [Nalpha-[(benzyloxy)carbonyl]phenylalaninamide]
15,12 °C,NC(c1ccccc1)c1ccccc1 [aminodiphenylmethane]
16,-136 °C,C/C=C/CC [trans-2-pentene]

row,melting point,Compound
1,198 °C,CCCN(CCC)S(=O)(=O)c1ccc(C(=O)O)cc1 [probenecid]
2,-12 °C,COC(=O)c1ccccc1 [methyl benzoate]
3,105 °C,"COC(=O)CCC(C)C1CCC2C3C(O)C(O)C4CCCCC4(C)C3CCC12C (stereo not given) [methyl 6,7-dihydroxycholan-24-oate]"
4,-23 °C,CCCCCCN [Hexan-1-amine]
5,243 °C,Cc1cc(NS(=O)(=O)c2ccc(N)cc2)nc(C)n1 [sulfisomidine]
6,-21 °C,O=CCCCC=O [glutaraldehyde]
7,-80 °C,CCOC=O [ethyl_formate]
8,75 °C,CCCCCCCCCCCCCCCCCCCC(=O)O [arachidic acid]
9,235 °C,Cc1ccnc(NS(=O)(=O)c2ccc(N)cc2)n1 [sulfamerazine]
10,115 °C,c1ccc2c(c1)-c1ccccc1-2 [biphenylene]
11,8 °C,COC(=O)c1ccncc1 [methyl isonicotinate]
12,84 °C,O=[N+]([O-])c1cccc2c(/C=N/c3ccccc3)cccc12 [N-[(1E)-(5-nitronaphthalen-1-yl)methylidene]aniline]
13,369 °C,c1ccc([Si](c2ccccc2)(c2ccccc2)[Si](c2ccccc2)(c2ccccc2)c2ccccc2)cc1 [hexaphenyldisilane]
14,57 °C,CCCC[C@H](NC(=O)OCc1ccccc1)C(=O)O [N-benzyloxycarbonyl-l-norleucine]
15,38 °C,CCCCCOC(=O)c1ccc(O)cc1 [N-pentyl 4-hydroxybenzoate]

# The remaining lines, values behind:
row,Compound,melting point
1,COc1ccc(O)c(C=O)c1 [2-hydroxy-5-methoxybenzaldehyde],15 °C
2,CCOCCOCCO [2-(2-Ethoxyethoxy)ethanol],-76 °C
3,"CC1=CC(=O)C=C(C)C1=O [2,6-dimethyl-p-benzoquinone]",70 °C
4,CC1=C(c2ccccc2)c2ccccc2C1=O [2-methyl-3-phenyl-1H-inden-1-one],87 °C
5,"C#CC(O)(c1ccccc1)c1ccccc1 [1,1-diphenyl-2-propyn-1-ol]",46 °C
6,"OCCCCCCO [1,6-hexanediol]",45 °C
7,"Cc1cc(C)cc(N)c1 [3,5-dimethylaniline]",10 °C
8,c1cc(C2CNCCN2)cs1 (stereo not given) [2-(3-thienyl)piperazine],98 °C
9,CC=C(C)CC [3-methyl-cis-2-pentene],-135 °C
10,COC1=CC(=O)C[C@@H](C)[C@]12Oc1c(Cl)c(OC)cc(OC)c1C2=O [Griseofulvin],220 °C
11,CCC(C)I (stereo not given) [2-Iodobutane],-104 °C
12,O=[N+]([O-])c1ccccc1CBr [2-nitrobenzyl bromide],47 °C
13,CCCCCCCCCCCCCCCCCCO [1-octadecanol],61 °C
14,"Cc1ccc(S(=O)(=O)OCCCOS(=O)(=O)c2ccc(C)cc2)cc1 [1,3-propanediol di-p-toluenesulfonate]",91 °C
15,Clc1ccc(-c2ccccc2Cl)cc1 [PCB-8],44 °C
16,"Cc1ccc(C)c(C)c1 [1,2,4-trimethylbenzene]",-44 °C
17,c1ccoc1 [furan],-85 °C
18,NNC(=O)NN [Carbonohydrazide],158 °C
19,N#C/C(=C\c1ccc(Cl)cc1)c1nc(-c2cccc3ccccc23)cs1,131 °C
20,"Oc1cc(O)c2ccccc2c1 [1,3-dihydroxynaphthalene]",125 °C
21,Cc1c(N(C)C)c(=O)n(-c2ccccc2)n1C,108 °C
22,C1CCC(NC2CCCCC2)CC1 [dicyclohexylamine],-2 °C
23,Nc1ccccc1-c1ccccc1 [Biphenyl-2-amine],51.5 °C

row,Compound,melting point
1,c1csc(P(c2cccs2)c2cccs2)c1 [tris(2-thienyl)phosphine],29 °C
2,C[C@@H]1[C@H](O)[C@@H](C)C=CC=CC=CC=CC=CC=CC=C[C@H](O[C@@H]2O[C@H](C)[C@@H](O)[C@H](N)[C@@H]2O)C[C@@H]2O[C@](O)(C[C@@H](O)C[C@@H](O)[C@H](O)CC[C@@H](O)C[C@@H](O)CC(=O)O[C@H]1C)C[C@H](O)[C@H]2C(=O)O [Amphotericin B],170 °C
3,O=[N+]([O-])c1cccc2ccccc12 [1-Nitronaphthalene],62 °C
4,Cc1ccc([N+](=O)[O-])cc1 [p-nitrotoluene],54 °C
5,"COc1ccc(OC)c(B(O)O)c1 [2,5-dimethoxybenzeneboronic acid]",93 °C
6,CC(=O)c1ccc(F)cc1O [4'-fluoro-2'-hydroxyacetophenone],32 °C
7,O=C(O)CCCCCCCCCCC(=O)O [Dodecanedioic acid],129 °C
8,"N#CCCCCCCC#N [1,6-dicyanohexane]",-3 °C
9,OC[C@H]1OC(O)[C@@H](O)[C@@H](O)[C@@H]1O (stereo partly drawn) [D-mannose],130 °C
10,"COc1nc(N)nc(SC)n1 [2-amino-4-methoxy-6-(methylthio)-1,3,5-triazine]",201 °C
11,OCc1ccccn1 [2-pyridinemethanol],-6 °C
12,CC(=O)Nc1cccc(F)c1 [3'-fluoroacetanilide],88 °C
13,Oc1cccc2ccccc12 [1-naphthol],96 °C
14,Oc1ccc(-c2ccccc2)cc1 [p-phenylphenol],167 °C
15,CC(C)C#N [isobutyronitrile],-72 °C
16,ClCCBr [1-bromo-2-chloroethane],-17 °C
17,O=C(Cl)c1ccccc1F [2-fluorobenzoyl chloride],5 °C
18,Brc1cnc2ccccc2c1 [3-bromoquinoline],14 °C
19,"CC(Oc1cc(Cl)c(Cl)cc1Cl)C(=O)O (stereo not given) [2-(2,4,5-trichlorophenoxy)propionic acid]",178 °C
20,"COc1cc(OC)cc(OC)c1 [1,3,5-trimethoxybenzene]",53 °C
21,"c1ccc2cc3cc4ccccc4cc3cc2c1 [2,3-Benzanthracene, Naphthacene]",341 °C
22,ClCc1ccccc1 [benzyl chloride],-43 °C
23,COc1ccc(/C=C2\N=C(c3ccccc3)OC2=O)cc1OC,133 °C

row,Compound,melting point
1,c1cc2c3c(cccc3c1)CC2 [acenaphthene],94 °C (2×) and 95 °C
2,CC(C)N [2-aminopropane],-95 °C
3,"Nc1ccc(-c2ccc(N)cc2)cc1 [Biphenyl-4,4'-diamine]",128 °C
4,"CN1C(=O)OC(C)(C)C1=O [3,5,5-trimethyloxazolidine-2,4-dione]",47 °C
5,"C[C@]12CCC(=O)CC1CCC1=C2CC[C@@H]2C(=O)CC[C@@H]12 (stereo not given in full) [10-methylgon-8-ene-3,17-dione]",138 °C
6,ClC1C(Cl)C(Cl)C(Cl)C(Cl)C1Cl (stereo not given) [Lindane],114 °C
7,CC(C)CCC[C@@H](C)[C@H]1CC[C@H]2[C@@H]3CC[C@H]4C[C@@H](O)CC[C@]4(C)[C@H]3CC[C@]12C [5alpha-cholestan-3beta-ol],142 °C
8,"CC(CC(=O)O)CC(C)(C)C (stereo not given) [3,5,5-trimethylhexanoic acid]",-70 °C
9,COc1ccc(-c2csc(/C(C#N)=C/c3ccc(Cl)cc3Cl)n2)cc1,143 °C
10,O=C1OC(c2ccccc2)=N/C1=C/c1ccc(-c2ccccc2Br)o1,160 °C
11,"CCC(C)(C)C [2,2-Dimethylbutane]",-100 °C
12,O=C[C@H](O)[C@H](O)[C@H](O)CO [D-ribose],84 °C
13,Cc1cccc(-c2ccccc2)c1 [1-methyl-3-phenylbenzene],5 °C
14,c1ccc2c(c1)cc1ccc3cccc4ccc2c1c34 [Benzo[pqr]tetraphene],176 °C
15,Oc1ccc(F)cc1 [4-fluorophenol],46.5 °C
16,Oc1ccc(Oc2ccccc2)cc1 [4-phenoxyphenol],84 °C
17,Nc1ccc(O)c([N+](=O)[O-])c1 [4-amino-2-nitrophenol],129 °C
18,Cc1ccc(S(=O)(=O)Cl)cc1[N+](=O)[O-] [4-methyl-3-nitrobenzenesulfonyl chloride],35 °C
19,NC(=O)CS(=O)C(c1ccccc1)c1ccccc1 (stereo not given) [modafinil],164 °C
20,Cc1ccccc1C [o-xylene],-25 °C
21,"Nc1ccncc1N [3,4-diaminopyridine]",219 °C
22,COc1cccc(C(C)=O)c1 [3'-methoxyacetophenone],-7 °C
23,CCCSc1ncccc1C(N)=O [2-(n-propylthio)nicotinamide],147 °C

# Reference: the Bradley open melting point set (2014)
